Measurements from patent EP0606506A1, “Beta-lactamase resistant antibacterial composition” (Kim, Yeong Sul, priority 1993, dated 1994).
Read-outs that look alike come from different tables or passages of the source.

Key:
Test in all cases: Agar dilution MIC, in vitro antibacterial activity test
Type in all cases: cell-based
[1] = test system: Staphylococcus aureus 285; settings: Staphylococcus aureus, 285, 18 h
Description: (§1) The antibacterial activity of each of sulbactam and the compounds I, II, III and IV was measured according to the agar dilution method using Mueller Hinton agar. The compounds to be tested were diluted twice in stages and then introduced into the agar plate. On this agar plate the selected bacterial strains were inoculated and then incubated at 37 °C for 18 hours. The agar plate was then visually observed to determine the minimum concentration, at which the growth of bacterial strains was not observed, which is then designated as the MIC value of the relevant antibiotic compound.
(§2) In the same manner, the MIC value of the compound I, II, III or IV in the presence of sulbactam was measured. In this case, the concentration of sulbactam in each agar plate should be constantly maintained at about 13µg/ml, which corresponds to approximately a quarter of the MIC value of sulbactam, to ensure that the decrease in MIC value of the compounds I - IV in the presence of sulbactam is not affected by the antibacterial activity of sulbactam itself. […] As a result of this experiment, the MIC values of each of four kinds of antibiotics, i.e. the compound I, II, III or IV used alone and in the presence of sulbactam were compared to each other and then the synergistic effect of the composition of the present invention was estimated.

[2] = test system: Staphylococcus aureus 503; settings: Staphylococcus aureus, 503, 18 h
Description: as §1, §2

Escherichia coli O 55 = settings: O55, 18 h
Description: as §1, §2

Escherichia coli DC 2 = settings: DC2, 18 h
Description: as §1, §2

Escherichia coli 1507 E = settings: 18 h
Description: as §1, §2

Escherichia coli DC 0 = settings: DC0, 18 h
Description: as §1, §2

[3] = test system: Pseudomonas aeruginosa 1771 M; settings: 18 h
Description: as §1, §2

Escherichia coli TEM = settings: 18 h
Description: as §1, §2

[4] = alone, Mueller Hinton agar, 37°C, read-out: MIC value
[5] = in the presence of sulbactam(13μg/ml), Mueller Hinton agar, 37°C, read-out: MIC value
[6] = read-out: MIC value, alone, Mueller Hinton agar, 37°C
[7] = read-out: MIC value, in the presence of sulbactam(13μg/ml), Mueller Hinton agar, 37°C

SMILES	MIC [1, 4] [µg/mL]	MIC [1, 5] [µg/mL]	MIC [2, 4] [µg/mL]	MIC [2, 5] [µg/mL]	MIC (Escherichia coli O 55; [4]) [µg/mL]	MIC (Escherichia coli O 55; [5]) [µg/mL]	MIC (Escherichia coli DC 2; [6]) [µg/mL]	MIC (Escherichia coli DC 2; [7]) [µg/mL]	MIC (Escherichia coli 1507 E; [4]) [µg/mL]	MIC (Escherichia coli 1507 E; [5]) [µg/mL]	MIC (Escherichia coli DC 0; [4]) [µg/mL]	MIC (Escherichia coli DC 0; [5]) [µg/mL]	MIC [3, 4] [µg/mL]	MIC [3, 5] [µg/mL]	MIC (Escherichia coli TEM; [6]) [µg/mL]	MIC (Escherichia coli TEM; [7]) [µg/mL]	MIC (Escherichia coli DC 2; [4]) [µg/mL]	MIC (Escherichia coli DC 2; [5]) [µg/mL]	MIC (Escherichia coli DC 0; [6]) [µg/mL]	MIC [1, 6] [µg/mL]	also measured
CC1(C)S[C@@H]2C(NC(=O)[C@H](N)c3ccc(O)cc3)C(=O)N2[C@H]1C(=O)O (stereo partly drawn) [compound I, 6-[D(-)-α-amino-p-hydroxyphenylacetamido]penicillanic acid]	1.56	0.195	1.56	0.098	1.56	< 0.002	1.56	0.781	3.12	0.391	6.25	0.781	0.098	0.098	> 100	> 100					
C=N[C@@H](C(=O)NC1C(=O)N2[C@@H]1SC(C)(C)[C@@H]2C(=O)O)c1ccc(O)cc1 (stereo partly drawn) [compound II, 6-[D-2-(methyleneamino)-2-(4-hydroxyphenyl)acetamido]penicillanic acid]	1.56	0.195	1.56	0.098	1.56	< 0.002			6.25	0.098	6.25	3.12	0.195	0.049	> 100	> 100	1.56	0.781			
CCN1CCN(C(=O)N[C@@H](C(=O)NC2C(=O)N3[C@@H]2SC(C)(C)[C@@H]3C(=O)O)c2ccc(O)cc2)C(=O)C1=O (stereo partly drawn) [compound III, 6-[D-2-(4-ethyl-2,3-dioxopiperazinocarbonylamino)-2-(4-hydroxyphenyl)acetamido]penicillanic acid]	3.12	0.781	6.25	0.391	0.195	< 0.002			0.781	0.098		0.195	0.098	0.025	> 100	1.56	0.098	0.025	1.56		
CNC(=O)C[C@@H](N)C(=O)N[C@@H](C(=O)N[C@@H]1C(=O)N2[C@@H]1SC(C)(C)[C@@H]2C(=O)O)c1ccc(O)cc1 [compound IV, 6-[D-2-(D-2-amino-3-N-methylcarbamoyl-propionamido)-2-p-hydroxyphenylacetamido]penicillanic acid]							0.781	0.195							> 100	25			3.12	6.25	MIC [1, 7]: 1.56 µg/mL; MIC [2, 6]: 6.25 µg/mL; MIC [2, 7]: 1.56 µg/mL; MIC (Escherichia coli O 55; [6]): 0.781 µg/mL; MIC (Escherichia coli O 55; [7]): < 0.002 µg/mL; MIC (Escherichia coli 1507 E; [6]): 3.12 µg/mL; MIC (Escherichia coli 1507 E; [7]): 0.098 µg/mL; MIC (Escherichia coli DC 0; [7]): 0.781 µg/mL; MIC [3, 6]: 0.391 µg/mL; MIC [3, 7]: 0.025 µg/mL
CC1(C)[C@H](C(=O)O)N2C(=O)C[C@H]2S1(=O)=O [sulbactam]							100								> 100				> 100	100	MIC [2, 6]: 100 µg/mL; MIC (Escherichia coli O 55; [6]): 100 µg/mL; MIC (Escherichia coli 1507 E; [6]): > 100 µg/mL; MIC [3, 6]: 50 µg/mL
